Where “and” joins values, the source holds several entries; their conditions need not be identical. Equal entries are not always repeated. Where two headings read alike, the source gives them in different places.
How the values were obtained:
[1] = PK studies in healthy mice (PET); assay type: in vivo, NMRI mice; settings: 18F tracer; for Mouse PK De-fluorination: bone uptake, footnote f: no de-fluorination detected; for Mouse PK Uptake: brain; for Mouse PK Washout: ratio of uptake peak/30 min
Procedure: NMRI mice (weight range 25-35 g) were injected intravenously with the ^18F-labeled compounds. Up to 150 μL of 1×PBS solution with 10%-15% EtOH or dilution medium ([…]) containing the ^18F-labeled compound (2-10 MBq) were injected. Anesthesia with isoflurane was induced before injection of the tracer and maintained during the image acquisition period. PET scans were performed using a SIEMENS INVEON small animal PET/CT scanner (Siemens, Knoxville, Tenn.). PET acquisition was started immediately before the radioactive dose was injected into the animal through the tail vein. Images were generated as dynamic scans for 60 minutes.
The peak uptake in the brain was set to 100% and washout curves were generated to evaluate the clearance of the activity from the normal brain (FIG. 2).

MAO A [2] = biological target: T1, MAO A (Mus musculus, UniProt Q64133); assay: MAO A 18F-FEH competition assay in mouse brain homogenate; assay type: binding; settings: for Selectivity over MAO A (in words): compared with 3a
T1 construct: from tissue; host or cells: whole mouse brain homogenate
T1 sequence (Q64133 1-526): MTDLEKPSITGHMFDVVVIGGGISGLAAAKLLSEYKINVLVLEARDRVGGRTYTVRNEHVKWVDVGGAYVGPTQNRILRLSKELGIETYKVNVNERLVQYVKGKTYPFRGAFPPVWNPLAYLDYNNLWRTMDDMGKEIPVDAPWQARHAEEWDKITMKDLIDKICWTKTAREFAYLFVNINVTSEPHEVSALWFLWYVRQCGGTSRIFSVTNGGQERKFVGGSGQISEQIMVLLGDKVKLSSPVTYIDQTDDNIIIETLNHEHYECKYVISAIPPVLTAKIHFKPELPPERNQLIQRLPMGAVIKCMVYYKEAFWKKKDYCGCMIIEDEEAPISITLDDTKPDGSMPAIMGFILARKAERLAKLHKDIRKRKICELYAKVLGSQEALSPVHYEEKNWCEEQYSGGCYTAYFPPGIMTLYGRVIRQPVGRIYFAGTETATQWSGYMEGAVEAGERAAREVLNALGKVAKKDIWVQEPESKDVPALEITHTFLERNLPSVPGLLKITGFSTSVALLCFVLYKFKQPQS

Tau = Tau (Homo sapiens, UniProt P10636); assay: Tau competition binding in human AD brain homogenate with 18F-labeled Tau binder; settings: for Binding affinity for Tau (in words): IC50 determined in AD brain homogenate, compared with 3a
Procedure: (§1) 20 μg of human Alzheimer disease brain homogenate was incubated with a dilution series of each test compound (1000 to 0.06 nM) in the presence of 800 Bq of ^18F-labeled Tau binder. The samples were shaken at 110 rpm for 45 min at 37° C. Samples were then filtered through GF/B 96 well filter plates and washed twice with 300 μL assay buffer (PBS containing 0.1% BSA and 2% DMSO). Thereafter, filter plates were sealed and a Fuji Film Imaging Plate (BAS-SR2025) was placed on top. The imaging plate was analyzed after overnight exposition using a Fuji Film BAS-5000. Non-specific signal was determined with samples containing ^18F-labeled Tau-reference binder in the presence of assay buffer without brain substrate and competitor. […] The unblocked ^18F-labeled Tau-binder signal was defined as total binding. IC50 values were calculated by Prism V6 (GraphPad) setting total binding to 100%.

amyloid-beta = amyloid-beta (Homo sapiens, UniProt P05067); assay: Binding affinity to amyloid-beta in AD brain homogenate; settings: human AD brain homogenate; non-radioactive derivatives
Procedure: as §1, with “beta-amyloid” for “Tau”, “beta-amyloid” for “Tau-reference”, “beta-amyloid binder” for “Tau-binder”

MAO A [3] = biological target: T2, MAO A (Homo sapiens, UniProt P21397); assay: MAO A FEH competition assay in human HC brain homogenate; assay type: binding; settings: human healthy control brain homogenate; FEH competition
T2 construct: 20 μg of human brain homogenate (without AD pathology); from tissue; host or cells: human brain homogenate without AD pathology (healthy control)
T2 sequence (P21397 1-527): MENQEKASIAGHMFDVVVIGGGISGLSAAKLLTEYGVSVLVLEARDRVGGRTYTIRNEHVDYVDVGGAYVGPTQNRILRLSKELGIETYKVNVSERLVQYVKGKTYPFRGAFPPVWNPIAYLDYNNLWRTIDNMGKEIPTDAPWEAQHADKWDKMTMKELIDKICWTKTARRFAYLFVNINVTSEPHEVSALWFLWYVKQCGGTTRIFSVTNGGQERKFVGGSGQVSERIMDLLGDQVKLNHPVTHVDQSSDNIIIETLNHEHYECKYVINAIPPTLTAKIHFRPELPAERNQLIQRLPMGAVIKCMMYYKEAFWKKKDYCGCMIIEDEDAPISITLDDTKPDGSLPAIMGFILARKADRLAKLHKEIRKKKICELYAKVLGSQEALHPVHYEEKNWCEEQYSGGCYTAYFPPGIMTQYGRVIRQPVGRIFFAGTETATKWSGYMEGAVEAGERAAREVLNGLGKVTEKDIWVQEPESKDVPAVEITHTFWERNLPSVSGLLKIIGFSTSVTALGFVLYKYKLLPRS
Procedure: as §1, with “human” for “human Alzheimer disease”, “homogenate (without AD pathology)” for “homogenate”, “MAO-A binder ([^18F]fluoroethyl harmine, FEH).” for “Tau binder.”, “FEH” for “Tau-reference binder”, “FEH” for “Tau-binder”

MAO B = biological target: T3, MAO B (Homo sapiens, UniProt P27338); assay: MAO B 18F-fluoro deprenyl competition assay in human HC brain homogenate; assay type: binding
T3 construct: 20 μg of human brain homogenate (without AD pathology); from tissue; host or cells: human brain homogenate without AD pathology (healthy control)
T3 sequence (P27338 1-520): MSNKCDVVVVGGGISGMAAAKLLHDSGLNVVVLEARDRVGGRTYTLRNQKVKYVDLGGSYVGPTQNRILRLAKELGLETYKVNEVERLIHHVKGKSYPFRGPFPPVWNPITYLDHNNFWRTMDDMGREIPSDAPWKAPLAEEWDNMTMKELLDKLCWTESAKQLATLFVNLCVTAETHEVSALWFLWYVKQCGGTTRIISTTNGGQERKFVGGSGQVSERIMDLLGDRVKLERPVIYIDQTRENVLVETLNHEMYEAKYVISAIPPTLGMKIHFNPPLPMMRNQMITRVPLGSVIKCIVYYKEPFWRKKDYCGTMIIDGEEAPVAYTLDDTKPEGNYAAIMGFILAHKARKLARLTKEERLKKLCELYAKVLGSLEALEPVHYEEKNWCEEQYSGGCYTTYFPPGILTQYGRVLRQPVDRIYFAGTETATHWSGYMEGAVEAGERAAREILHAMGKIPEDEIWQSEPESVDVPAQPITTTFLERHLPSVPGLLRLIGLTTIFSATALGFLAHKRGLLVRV
Procedure: The samples were shaken at 110 rpm for 45 min at 37° C. Samples were then filtered through GF/B 96 well filter plates and washed twice with 300 μL assay buffer (PBS containing 0.1% BSA and 2% DMSO). Thereafter, filter plates were sealed and a Fuji Film Imaging Plate (BAS-SR2025) was placed on top. The imaging plate was analyzed after overnight exposition using a Fuji Film BAS-5000. […] IC50 values were calculated by Prism V6 (GraphPad) setting total binding to 100%.

[4] = 18F-FEH competition, non-radioactive derivatives, read-out: IC50 MAO A in mouse brain homogenate
[5] = IC50 in mouse brain homogenate, fluorine-19 derivatives, read-out: low MAO A binding
[6] = grade, IC50 in mouse brain homogenate, fluorine-19 derivatives, read-out: low MAO A binding
[7] = IC50 in AD brain homogenate, non-radioactive fluorine-19 derivatives, read-out: high Tau binding
[8] = grade, AD brain homogenate, non-radioactive fluorine-19 derivatives, read-out: high Tau binding
[9] = human AD brain homogenate, determined with non-radioactive F-1, F-2, F-3a, read-out: IC50 for tau binding in AD brain homogenate

Sequence of amyloid-beta (P05067 672-711 limits assumed): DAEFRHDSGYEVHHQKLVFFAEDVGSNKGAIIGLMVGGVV
Sequence of Tau (P10636 623-708 limits assumed): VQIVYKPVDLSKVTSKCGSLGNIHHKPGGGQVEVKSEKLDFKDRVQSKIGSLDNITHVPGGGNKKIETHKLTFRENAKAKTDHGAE

| SMILES | Mouse PK De-fluorination [1] | Mouse PK Uptake [1] | Mouse PK Washout [1] | IC50 (MAO A [2]; [4]) | IC50 (MAO A [2]; [5]) | IC50 (MAO A [2]; [6]) | IC50 (Tau; [7]) | IC50 (Tau; [8]) | IC50 (Tau; [9]) | IC50 (amyloid-beta) | IC50 (MAO A [3]) | Binding affinity for Tau (in words) (Tau) | Selectivity over MAO A (in words) (MAO A [2]) | IC50 (MAO A [2]; low MAO A binding [nM], IC50 in mouse brain homogenate, fluorine-19 derivatives) | IC50 (MAO A [2]; low MAO A binding, grade, IC50 in mouse brain homogenate, fluorine-19 derivatives) | IC50 (MAO B) |
| --- | --- | --- | --- | --- | --- | --- | --- | --- | --- | --- | --- | --- | --- | --- | --- | --- |
| Fc1cc(-c2ccc3c(n2)[nH]c2ccncc23)ccn1 [Example F-3a] | (<0.5% ID/g)^f | (4.4-5.9% ID/g) ^ | (11.2-16.6) | 1400 nM | > 1000 nM | > 1000 nM | < 5 nM | < 5 nM | < 2 nM | > 1000 nM | 1100 nM and 530 nM |  |  |  |  |  |
| Fc1cnccc1-c1ccc2c(n1)[nH]c1ccncc12 [Example F-3b] |  | (4.0% ID/g) | (19.4) |  | 765 nM |  | < 5 nM | < 5 nM |  |  |  |  |  |  |  |  |
| Fc1cncc(-c2ccc3c(n2)[nH]c2ccncc23)c1 [Example F-5] | (2.9% ID/g) | (5.3% ID/g) | (9.6) |  | > 1000 nM | > 1000 nM | 6.3 nM |  |  |  |  | inferior |  |  |  |  |
| Fc1ccc(-c2ccc3c(n2)[nH]c2ccncc23)cn1 [Example F-2] | (6.2% ID/g) | (5.7% ID/g) | (10.9) | 475 nM |  |  | < 5 nM | < 5 nM | < 2 nM | > 1000 nM | 100 nM |  | Inferior |  |  |  |
| Fc1ccncc1-c1ccc2c(n1)[nH]c1ccncc12 [Example F-6] | (4.8% ID/g) | (8.2% ID/g) | (14.5) |  | > 1000 nM | > 1000 nM | 43 nM |  |  |  |  | poor |  |  |  |  |
| Fc1cccnc1-c1ccc2c(n1)[nH]c1ccncc12 [Example F-10] | (6.2% ID/g) | (2.1% ID/g) | (3.6) |  |  |  | 103 nM |  |  |  |  | poor |  | > 1000 nM | > 1000 nM |  |
| Fc1ccc(-c2ccc3c(c2)[nH]c2ccncc23)cn1 [Example F-1] |  |  |  | 22 nM |  |  |  |  | < 2 nM | > 1000 nM | 5 nM |  |  |  |  | 170 nM |
| Fc1cccc(-c2ccc3c(n2)[nH]c2ccncc23)n1 [Example F-7] | (11.1% ID/g) | (8.5% ID/g) | (7.0) |  | 268 nM |  | 7.1 nM |  |  |  |  | inferior | Inferior |  |  |  |
| Fc1ccnc(-c2ccc3c(n2)[nH]c2ccncc23)c1 [Example F-9] |  |  |  |  | > 1000 nM | > 1000 nM | 8.4 nM |  |  |  |  | inferior |  |  |  |  |
| Fc1ccc(-c2ccc3c(n2)[nH]c2ccncc23)nc1 [Example F-8] |  |  |  |  | 75 nM |  | < 5 nM | < 5 nM |  |  |  |  | Inferior |  |  |  |

Source: patent publication US10835624B2, “Compounds for imaging Tau protein aggregates” (AC IMMUNE S.A., priority 2016, dated 2020)
